For series [1] the following is noted: renal clearance calculated as CLtotal × fe, rat weight 0.25 kg; fixed literature value; cited from earlier work.
The nature of series [2]: Bottom-up IVIVE of gadoxetate transporter kinetic data / PBPK model. Also noted: species or system rat. How it is done: IVIVE of gadoxetate CLactive,u and CLpassive,u was performed by scaling these parameters to in vivo values (CLactive,u,in vivo and CLpassive,u,in vivo; mL/min/kg body weight) using a hepatocellularity of 120 × 10^6 cells/g liver,[34] and a liver weight (wliver) of 40 g/kg body weight,[38] as in eq 3. [drawing 3] 3
A reduced PBPK model was developed to describe the PK of gadoxetate in rats; a permeability-limited liver model was implemented capturing relevant processes, as done previously.[6],[41] The compartments represent the blood, spleen, splanchnic organs, liver interstitial space, hepatocytes, and the rest of the body (ROB) vascular and extravascular spaces. The ROB compartment includes muscles, skin, bones, and fat among others. Details of model equations and physiological parameters values are reported in the Supporting Information, Sections 2, 3, and 5.
Standard kinetic models used for MRI contrast agents generally describe the organs by using three compartments: plasma, interstitial, and intracellular spaces.[12],[42],[43] Gadoxetate distributes only in the extracellular space of all the organs; liver is the exception, where gadoxetate undergoes active uptake into the hepatocytes.[44] Therefore, in the gadoxetate PBPK model, the volume of all the compartments, except the blood and the liver, corresponded to the organ extracellular space, that in turn was considered to be composed of the blood within the organ and the interstitial space. For highly vascularized and perfused organs with fenestrated capillaries (e.g., liver), the exchange between the plasma and the interstitial space is generally considered to be fast.[12],[19] Therefore, for liver, spleen, and splanchnic compartments, the extracellular volumes were considered to be the sum of the blood within the organ and the interstitial space volumes. […] A permeability limitation between the vascular and interstitial space was, therefore, assumed for the ROB compartment, as shown in eq 5. [drawing 5] 5 cb, crob,v and crob,ev [μmol/L] are the gadoxetate concentration in blood and ROB vascular and extravascular compartments; Vrob,v and Vrob,ev [L] are the ROB vascular and extravascular compartment volumes, respectively; and PS [L/h] is the permeability surface product.
To describe the gadoxetate-active uptake into the hepatocytes, a permeability-limited liver model was used, as shown in eq 6. [drawing 6] 6 inputsplan [μmol/h] represent the venous input from the splanchnic organs, while inputart [μmol/h] is the input from the hepatic artery; cliv,extr and cliv,cell [μmol/L] are the drug concentrations in the extracellular liver (tissue blood plus interstitial space) and in the hepatocytes, respectively; Vliv,extr and Vliv,int [L] are the extracellular and hepatocytes liver volumes; Qh [L/h] is the liver blood flow; Kliv,extr-b is the extracellular liver to blood partition coefficient; CLactive and CLpassive [L/h] are the active and passive clearances across the hepatocytes cell membrane; CLbiliary [L/h] is the clearance representing the excretion from the hepatocytes into the bile; and fu,liv,cell is the gadoxetate fraction unbound in the hepatocytes (obtained from the in vitro generated data fu,cell). Recent PBPK studies of hepatic transporter substrates have used a 5-compartment liver model[45] and the use of this particular liver model was also explored in the current PBPK modeling.
All the parameters were initially obtained using literature values and in vitro experiments. Prospective transporter clearance IVIVE was performed with the aim of predicting the gadoxetate ΔR1 in blood, spleen, and liver after administration of gadoxetate alone (in the absence of an inhibitor). CLactive, CLpassive, and fu,liv,cell were obtained from the in vitro experimental values obtained in this study, as detailed in the section “Data Analysis and Quantitative Translation”. CLr was fixed to a literature value, as in Table 3. […]

Setting [3] is: scaled from in vitro, 120 × 10^6 cells/g liver, 40 g liver/kg.

The source of these data is article PMC8397403, “Physiologically Based Pharmacokinetic Modeling of Transporter-Mediated Hepatic Disposition of Imaging Biomarker Gadoxetate in Rats” (Molecular Pharmaceutics, 2021).

Marks after values point to notes of the source that are not given here.

Regarding `CCOc1ccc(C[C@@H](CN(CCN(CC(=O)[O-])CC(=O)[O-])CC(=O)[O-])N(CC(=O)[O-])CC(=O)[O-])cc1.[Gd+3].[H+].[H+]` [gadoxetate], in series [1], the CLr is reported as 0.17 L/h. Further, the “CLbiliary, bottom-up scaled value” in series [2] (Monte Carlo mean, value assumed equal to CLpassive) is 0.014 ^a^, ^c L/h. For the same compound, in series [2] (mean value calculated from the Monte Carlo analysis, rat 0.25 kg), the “CLactive, bottom-up scaled value” is 0.23 ^a L/h. In addition, in series [2] (permeability surface product, Monte Carlo mean, value assumed equal to CLpassive), the “PS, bottom-up scaled value” is on record as 0.014 ^a^, ^c L/h. In addition, in series [2] (setting [3]), the “predicted in vivo active uptake clearance (CLactive,u,in vivo)” value is listed as 14.7 mL/min/kg body weight and the “predicted in vivo passive clearance (CLpassive,u,in vivo)” value was 0.93 mL/min/kg body weight. The compound also showed a CLpassive in series [2] (scaled from the mean in vitro value in Table 2, fixed in PBPK model) of 0.014 L/h.
